Source: US20030225127A1, “Heterocyclic sulfonamide derivatives” (priority 2003, published 2003)

CC(CNS(=O)(=O)C(C)C)c1ccc(-c2ccc3c(c2)CC(=O)N3)cc1 (centres unmarked) [Example 3, 5-[4-(1-methyl-2-{[(methylethyl)sulfonyl]amino}ethyl)phenyl]indolin-2-one]
melting point: 170 to 171 °C

CC(C)S(=O)(=O)NC[C@H](C)c1ccc(-c2ccc3c(c2)CC(=O)N3)cc1 [Example 4, 5-[4-((1R)-1-methyl-2-{[(methylethyl)sulfonyl]amino}ethyl)phenyl]indolin-2-one]
melting point: 184 to 185 °C
